US11174251B2, “Compositions and methods for inhibition of the JAK pathway” (Rigel Pharmaceuticals, Inc., priority 2010, dated 2021)
Structures can show the parent of a compound that is named as a salt.

Biological target: T1, JAK3 (Homo sapiens, UniProt P52333)
T1 construct: The Ramos B-cell line was acquired from ATCC (ATCC Catalog No. CRL-1596); host or cells: Ramos B-cell line (human)
T1 sequence (P52333 1-1124): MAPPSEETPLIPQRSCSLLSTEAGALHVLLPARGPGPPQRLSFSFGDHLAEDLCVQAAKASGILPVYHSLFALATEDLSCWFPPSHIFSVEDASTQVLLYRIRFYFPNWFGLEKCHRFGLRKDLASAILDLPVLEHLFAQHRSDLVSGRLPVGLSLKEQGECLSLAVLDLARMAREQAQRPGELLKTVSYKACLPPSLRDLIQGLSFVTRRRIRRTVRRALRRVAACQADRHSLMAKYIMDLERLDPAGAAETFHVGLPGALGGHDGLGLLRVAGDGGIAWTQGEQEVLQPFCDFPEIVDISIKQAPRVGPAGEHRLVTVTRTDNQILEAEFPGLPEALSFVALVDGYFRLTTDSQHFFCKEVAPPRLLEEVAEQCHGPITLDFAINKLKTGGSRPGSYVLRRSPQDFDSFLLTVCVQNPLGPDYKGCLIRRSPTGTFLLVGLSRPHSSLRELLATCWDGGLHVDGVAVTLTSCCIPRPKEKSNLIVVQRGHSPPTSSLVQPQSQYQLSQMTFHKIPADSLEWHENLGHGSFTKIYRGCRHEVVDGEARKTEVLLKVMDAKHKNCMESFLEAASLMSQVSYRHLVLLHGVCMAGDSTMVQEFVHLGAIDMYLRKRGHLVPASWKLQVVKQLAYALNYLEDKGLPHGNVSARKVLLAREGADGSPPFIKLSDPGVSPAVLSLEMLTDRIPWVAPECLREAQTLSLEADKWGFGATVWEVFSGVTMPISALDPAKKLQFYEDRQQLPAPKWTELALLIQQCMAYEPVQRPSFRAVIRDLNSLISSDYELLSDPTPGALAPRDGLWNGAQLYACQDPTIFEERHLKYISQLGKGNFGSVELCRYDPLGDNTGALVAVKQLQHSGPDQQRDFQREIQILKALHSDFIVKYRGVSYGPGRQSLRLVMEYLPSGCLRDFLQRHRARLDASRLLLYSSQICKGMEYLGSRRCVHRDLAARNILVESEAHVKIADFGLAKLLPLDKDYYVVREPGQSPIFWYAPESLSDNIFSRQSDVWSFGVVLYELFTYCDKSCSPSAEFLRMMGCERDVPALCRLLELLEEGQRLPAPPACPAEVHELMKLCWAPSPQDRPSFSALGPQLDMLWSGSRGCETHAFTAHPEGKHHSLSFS
Assay: Assay for CD23 expression on Ramos B-cells stimulated by IL-4 (Table IV: ability to inhibit JAK3 activity)
Type: cell-based
Settings: tested under conditions described in Example 3 (so in the source)
Method in brief: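 IL-4-induced CD23 surface expression on human Ramos B cells, detected by flow cytometry after 20–24 h stimulation (IL-4 final 50 units/mL). Compound or DMSO added 1 h beforehand at 37 °C; cells kept in RPMI with 5% serum.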

SMILES	IC50 [µM]
COc1cc(Nc2ncc([N+](=O)[O-])c(Nc3ccc4oc(=O)[nH]c4c3)n2)cc(C(F)(F)F)c1 [Compound I-47, 5-(2-(3-methoxy-5-(trifluoromethyl)phenylamino)-5-nitropyrimidin-4-ylamino)benzo[d]oxazol-2(3H)-one trifluoroacetate salt]	> 10
Cc1cnc(Nc2cc(C)c(C)c(C)c2)nc1Nc1ccc2oc(=O)n(COP(=O)(O)O)c2c1 [Compound I-136, 5-methyl-N4-[3-(phosphonooxy)methyl-2-oxo-2,3-dihydro-1,3-benzoxazol-5-yl]-N2-(3,4,5-trimethyl)phenyl-2,4-pyrimidinediamine dipotassium salt]	0.5 to 5
Cc1cnc(Nc2cc(C)c(C)c(C)c2)nc1Nc1cc(CN2CCN(C)CC2)c2oc(=O)[nH]c2c1 [Compound I-93, 5-(2-(3,4,5-trimethylphenylamino)-5-methylpyrimidin-4-ylamino)-7-((4-methylpiperazin-1-yl)methyl)benzo[d]oxazol-2(3H)-one]	0.5 to 5
CC(C)(C)c1ccc(Nc2ncc(F)c(Nc3ccc4oc(=O)[nH]c4c3)n2)cc1 [Compound I-201, 5-(2-(4-tert-butylphenylamino)-5-fluoropyrimidin-4-ylamino)benzo[d]oxazol-2(3H)-one trifluoroacetate salt]	0.5 to 5
Cc1ccc(Nc2ncc([N+](=O)[O-])c(Nc3ccc4oc(=O)[nH]c4c3)n2)cc1N(C)C [Compound I-45, 5-(2-(3-(dimethylamino)-4-methylphenylamino)-5-nitropyrimidin-4-ylamino)benzo[d]oxazol-2(3H)-one trifluoroacetate salt]	> 10
Cc1cnc(N(C)c2ccccc2)nc1Nc1ccc2oc(=O)[nH]c2c1 [Compound I-26, 5-[5-Methyl-2-(methyl-phenyl-amino)-pyrimidin-4-ylamino]-3H-benzooxazol-2-one]	0.5 to 5
C#Cc1cccc(Nc2ncc(C)c(Nc3ccc4oc(=O)[nH]c4c3)n2)c1 [Compound I-31, 5-[2-(3-Ethynyl-phenylamino)-5-methyl-pyrimidin-4-ylamino]-3H-benzooxazol-2-one]	< 0.5
Cc1cnc(Nc2cc(C)c(C)c(C)c2)nc1Nc1cc(CN2CCN(C(=O)OC(C)(C)C)CC2)c2oc(=O)[nH]c2c1 [Compound I-94, tert-butyl 4-((5-(2-(3,4,5-trimethylphenylamino)-5-methylpyrimidin-4-ylamino)-2,3-dihydro-2-oxobenzo[d]oxazol-7-yl)methyl)piperazine-1-carboxylate]	5 to 10
CCCCc1ccc(Nc2ncc(C)c(Nc3ccc4oc(=O)[nH]c4c3)n2)cc1C [Compound I-148, N2-(4-n-butyl-3-methyl)phenyl-5-methyl-N4-(2-oxo-2,3-dihydro-1,3-benzoxazol-5-yl)-2,4-pyrimidinediamine]	5 to 10
COc1cc(Nc2ncc(C)c(Nc3ccc4oc(=O)[nH]c4c3)n2)cc(C)c1Cl [Compound I-124, 5-(2-(4-chloro-3-methoxy-5-methylphenylamino)-5-methylpyrimidin-4-ylamino)benzo[d]oxazol-2(3H)-one trifluoroacetate salt]	< 0.5
O=C1CCc2cc(Nc3ncc(F)c(Nc4ccc5oc(=O)[nH]c5c4)n3)ccc2N1 [II-26, 6-(4-(2,3-dihydro-2-oxobenzo[d]oxazol-5-ylamino)-5-fluoropyrimidin-2-ylamino)-3,4-dihydroquinolin-2(1H)-one trifluoroacetate salt]	< 0.5
O=C1COc2cc(Nc3ncc(F)c(Nc4ccc5oc(=O)[nH]c5c4)n3)ccc2N1 [II-25, 7-(4-(2,3-dihydro-2-oxobenzo[d]oxazol-5-ylamino)-5-fluoropyrimidin-2-ylamino)-2H-benzo[b][1,4]oxazin-3(4H)-one formate salt]	< 0.5
Cc1ccc(Nc2ncc(F)c(Nc3ccc4oc(=O)[nH]c4c3)n2)cc1 [Compound I-202, 5-(2-(p-tolylamino)-5-fluoropyrimidin-4-ylamino)benzo[d]oxazol-2(3H)-one trifluoroacetate salt]	0.5 to 5
Cc1cnc(Nc2cc(C)c(C#N)c(C)c2)nc1Nc1ccc2oc(=O)[nH]c2c1 [Compound I-64, 2,6-Dimethyl-4-[5-methyl-4-(2-oxo-2,3-dihydro-benzooxazol-5-ylamino)-pyrimidin-2-ylamino]-benzonitrile trifluoroacetate salt]	< 0.5
COc1c(C)ccc(Nc2ncc(Cl)c(Nc3ccc4oc(=O)[nH]c4c3)n2)c1F [Compound I-67, 5-(5-chloro-2-(2-fluoro-3-methoxy-4-methylphenylamino)pyrimidin-4-ylamino)benzo[d]oxazol-2(3H)-one]	< 0.5
Cc1cnc(Nc2cc(C)c(C(=O)OC(C)(C)C)c(C)c2)nc1Nc1ccc2oc(=O)[nH]c2c1 [Compound I-150, N2-(4-tert-butoxycarbonyl-3,5-dimethyl)phenyl-5-methyl-N4-(2-oxo-2,3-dihydro-1,3-benzoxazol-5-yl)-2,4-pyrimidinediamine]	< 0.5
O=C(NC1CC1)c1ccc(Nc2ncc(F)c(Nc3ccc4oc(=O)[nH]c4c3)n2)cc1 [Compound I-161, N-cyclopropyl-4-(5-fluoro-4-(2-oxo-2,3-dihydrobenzo[d]oxazol-5-ylamino)pyrimidin-2-ylamino)benzamide formate salt]	< 0.5
Cc1ccc(Nc2ncc(F)c(Nc3ccc4oc(=O)[nH]c4c3)n2)cc1-c1ccncc1 [Compound I-203, 5-(2-(4-methyl-3-(pyridin-4-yl)phenylamino)-5-fluoropyrimidin-4-ylamino)benzo[d]oxazol-2(3H)-one]	< 0.5

Continued, values first:

IC50 [µM]	SMILES
< 0.5	CS(=O)(=O)c1cc(Nc2ncc(F)c(Nc3ccc4oc(=O)[nH]c4c3)n2)ccc1F [Compound I-168, 5-(2-(4-fluoro-3-(methylsulfonyl)phenylamino)-5-fluoropyrimidin-4-ylamino)benzo[d]oxazol-2(3H)-one trifluoroacetate salt]
< 0.5	Cc1cc(Nc2ncc(F)c(Nc3ccc4oc(=O)[nH]c4c3)n2)cc(C)c1C#N [Compound I-70, 4-(5-fluoro-4-(2-oxo-2,3-dihydrobenzo[d]oxazol-5-ylamino)pyrimidin-2-ylamino)-2,6-dimethylbenzonitrile]
< 0.5	NC(=O)c1ccc(Nc2nccc(Nc3ccc4oc(=O)[nH]c4c3)n2)cc1 [Compound I-2, 4-(4-(2-oxo-2,3-dihydrobenzo[d]oxazol-5-ylamino)pyrimidin-2-ylamino)benzamide trifluoroacetate salt]
< 0.5	Cc1cnc(Nc2cc(C)c3c(c2)C(=O)OC3)nc1Nc1ccc2oc(=O)[nH]c2c1 [II-13, 5-methyl-N4-(2-oxo-2,3-dihydro-1,3-benzoxazol-5-yl)-N2-(1-oxo-1,3-dihydro-4-methylisobenzofuran-6-yl)-2,4-pyrimidinediamine]
< 0.5	Cc1cnc(Nc2ccc(N(C)C)cc2)nc1Nc1ccc2oc(=O)[nH]c2c1 [Compound I-25, 5-[2-(4-Dimethylamino-phenylamino)-5-methyl-pyrimidin-4-ylamino]-3H-benzooxazol-2-one]
< 0.5	Cc1ccc(Nc2ncc(C)c(Nc3ccc4oc(=O)[nH]c4c3)n2)cc1N(C)C [Compound I-17, 5-[2-(3-Dimethylamino-4-methyl-phenylamino)-5-methyl-pyrimidin-4-ylamino]-3H-benzooxazol-2-one]
< 0.5	COc1cc(Nc2ncc(F)c(Nc3ccc4oc(=O)[nH]c4c3)n2)cc(C)c1F [Compound I-181, 5-(2-(4-fluoro-3-methoxy-5-methylphenylamino)-5-fluoropyrimidin-4-ylamino)benzo[d]oxazol-2(3H)-one trifluoroacetate salt]
< 0.5	Cc1cnc(Nc2cc(C)c(C)c(C)c2)nc1Nc1ccc2oc(=O)n(COP(=O)(O)O)c2c1 [Compound I-132, 5-methyl-N4-[3-(phosphonooxy)methyl-2-oxo-2,3-dihydro-1,3-benzoxazol-5-yl]-N2-(3,4,5-trimethyl)phenyl-2,4-pyrimidinediamine Tris salt]
< 0.5	CCNC(=O)c1ccc(Nc2ncc(F)c(Nc3ccc4oc(=O)[nH]c4c3)n2)cc1 [Compound I-162, N-ethyl-4-(5-fluoro-4-(2-oxo-2,3-dihydrobenzo[d]oxazol-5-ylamino)pyrimidin-2-ylamino)benzamide formate salt]
